Test results published in US12668600B2 (Kumquat Biosciences Inc., priority 2023, dated 2026).

Legend:
Assay type in all cases: biochemical
[1] = molecular target: T1, KRAS G12V (Homo sapiens, UniProt P01116, G12V); test: HTRF KRAS-SOS1 interaction assay, KRAS G12V; conditions: binned ≤2 μM / >2 μM, read-out: Inhibition of KRAS G12V (IC50)
T1 construct: made in house; host or cells: E. coli, e.g. BL21 (DE3)
Summary of the method: (§1)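 Inhibition of the KRAS–SOS1 interaction was measured by HTRF (ex 337, em 620/665 nm) after ≥~10 min incubation. Donor: anti-GST-Eu on GST-KRAS; acceptor: anti-6His-XL665 on His-hSOS1, in HEPES pH 7.4 buffer with DTT, BSA and Igepal. Compounds in duplicate at 0.01–10 μM; IC50 from emission ratio.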

[2] = molecular target: T2, KRAS G12S (Homo sapiens, UniProt P01116, G12S); test: HTRF KRAS-SOS1 interaction assay, KRAS G12S; conditions: binned ≤2 μM / >2 μM, read-out: Inhibition of KRAS G12S (IC50)
T2 construct: made in house; host or cells: E. coli, e.g. BL21 (DE3)
Summary of the method: as §1

[3] = molecular target: T3, KRAS WT (Homo sapiens, UniProt P01116); test: HTRF KRAS-SOS1 interaction assay, wildtype KRAS; conditions: binned ≤2 μM / >2 μM, read-out: Inhibition of KRAS WT (IC50)
T3 construct: made in house; host or cells: E. coli, e.g. BL21 (DE3)
Summary of the method: as §1

[4] = molecular target: T4, KRAS G12D (Homo sapiens, UniProt P01116, G12D); test: HTRF KRAS-SOS1 interaction assay, KRAS G12D; conditions: binned ≤2 μM / >2 μM, read-out: Inhibition of KRAS G12D (IC50)
T4 construct: made in house; host or cells: E. coli, e.g. BL21 (DE3)
Summary of the method: as §1

T1 sequence (P01116 1-188 isoform P01116-2 G12V): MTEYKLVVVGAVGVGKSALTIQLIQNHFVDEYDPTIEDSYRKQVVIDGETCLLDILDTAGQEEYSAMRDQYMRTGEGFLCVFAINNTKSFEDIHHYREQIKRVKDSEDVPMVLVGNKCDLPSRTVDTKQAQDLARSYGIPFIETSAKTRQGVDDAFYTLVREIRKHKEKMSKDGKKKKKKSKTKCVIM
T2 sequence (P01116 1-188 isoform P01116-2 G12S): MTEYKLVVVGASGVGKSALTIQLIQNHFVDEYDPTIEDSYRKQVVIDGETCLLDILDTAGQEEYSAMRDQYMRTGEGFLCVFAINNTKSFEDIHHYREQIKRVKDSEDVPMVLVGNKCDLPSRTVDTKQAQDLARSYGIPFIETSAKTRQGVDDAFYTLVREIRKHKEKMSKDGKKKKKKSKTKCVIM
T3 sequence (P01116 1-188 isoform P01116-2): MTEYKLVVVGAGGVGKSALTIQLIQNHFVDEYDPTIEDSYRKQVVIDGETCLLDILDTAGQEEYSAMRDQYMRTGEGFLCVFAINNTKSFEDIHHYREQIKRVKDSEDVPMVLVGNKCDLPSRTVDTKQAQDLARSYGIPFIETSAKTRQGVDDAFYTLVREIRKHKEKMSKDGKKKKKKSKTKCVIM
T4 sequence (P01116 1-188 isoform P01116-2 G12D): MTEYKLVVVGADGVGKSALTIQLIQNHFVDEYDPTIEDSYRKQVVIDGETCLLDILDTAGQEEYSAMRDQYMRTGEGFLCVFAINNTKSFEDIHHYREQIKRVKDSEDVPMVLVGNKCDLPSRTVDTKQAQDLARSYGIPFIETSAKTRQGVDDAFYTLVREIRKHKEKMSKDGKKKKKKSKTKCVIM

IC50 [1] [nM]	IC50 [2] [nM]	IC50 [3] [nM]	IC50 [4] [nM]	Compound
≤ 2000	≤ 2000	≤ 2000	≤ 2000	N#Cc1c(N)sc2c(F)ccc(-c3c(Cl)c4c5c(nc(OC[C@@]67CCCN6C[C@H](F)C7)nc5c3F)N([C@H](C/C=C/C(F)(F)F)c3cccnc3N)CCO4)c12 [Compound 733, 2-amino-4-(4-((R,E)-1-(2-aminopyridin-3-yl)-5,5,5-trifluoropent-3-en-1-yl)-8-chloro-10-fluoro-2-(((2R,7aS)-2-fluorotetrahydro-1H-pyrrolizin-7a(5H)-yl)methoxy)-5,6-dihydro-4H-[1,4]oxazepino[5,6,7-de]quinazolin-9-yl)-7-fluorobenzo[b]thiophene-3-carbonitrile]
≤ 2000	≤ 2000	≤ 2000	≤ 2000	C[C@H](c1cccnc1N)N1CCOc2nc(-c3ccc(F)c4sc(N)c(C#N)c34)c(F)c3nc(OC[C@@]45CCCN4C[C@H](F)C5)nc1c23 (single isomer, unassigned) [Compound 619]
≤ 2000	≤ 2000	≤ 2000	≤ 2000	CCN(CC)CCC[C@H](c1cccnc1N)N1CCOc2c(C(F)(F)F)c(-c3ccc(F)c4sc(N)c(C#N)c34)c(F)c3nc(OC[C@@]45CCCN4C[C@H](F)C5)nc1c23 (single isomer, unassigned) [Compound 806]

The remaining lines, values behind:

Compound	IC50 [1] [nM]	IC50 [2] [nM]	IC50 [3] [nM]	IC50 [4] [nM]
N#Cc1c(N)sc2c(F)ccc(-c3c(Cl)c4c5c(nc(OC[C@@]67CCCN6C[C@H](F)C7)nc5c3F)N(C(/C=C\F)c3cccnc3N)CCO4)c12 (single isomer, unassigned) [Compound 755]	≤ 2000	≤ 2000	≤ 2000	≤ 2000
CON=C1CN2CCC[C@@]2(COc2nc3c4c(c(Cl)c(-c5ccc(F)c6sc(N)c(C#N)c56)c(F)c4n2)OCCN3[C@H](C)c2cccnc2N)C1 (mixture of isomers) [Compound 653, 2-amino-4-(4-((R)-1-(2-aminopyridin-3-yl)ethyl)-8-chloro-10-fluoro-2-(((S)-2-(methoxyimino)tetrahydro-1H-pyrrolizin-7a(5H)-yl)methoxy)-5,6-dihydro-4H-[1,4]oxazepino[5,6,7-de]quinazolin-9-yl)-7-fluorobenzo[b]thiophene-3-carbonitrile]	≤ 2000	≤ 2000	≤ 2000	≤ 2000
N#Cc1c(N)sc2c(F)ccc(-c3c(C(F)(F)F)c4c5c(nc(OC[C@@]67CCCN6C[C@@]6(CC6(F)F)C7)nc5c3F)N([C@H](CC3CCOCC3)c3cccnc3N)CCO4)c12 [Compound 855, 2-amino-4-(4-((R)-1-(2-aminopyridin-3-yl)-2-(tetrahydro-2H-pyran-4-yl)ethyl)-2-(((1S,7a′S)-2,2-difluorodihydro-1′H,3′H-spiro[cyclopropane-1,2′-pyrrolizin]-7a′(5′H)-yl)methoxy)-10-fluoro-8-(trifluoromethyl)-5,6-dihydro-4H-[1,4]oxazepino[5,6,7-de]quinazolin-9-yl)-7-fluorobenzo[b]thiophene-3-carbonitrile]	≤ 2000	≤ 2000	≤ 2000	≤ 2000
C[C@H](c1cc(C(F)(F)F)cnc1N)N1CCOc2c(Cl)c(-c3ccc(F)c4sc(N)c(C#N)c34)c(F)c3nc(OC[C@@]45CCCN4C[C@H](F)C5)nc1c23 [Compound 869, 2-amino-4-(4-((R)-1-(2-amino-5-(trifluoromethyl)pyridin-3-yl)ethyl)-8-chloro-10-fluoro-2-(((2R,7aS)-2-fluorotetrahydro-1H-pyrrolizin-7a(5H)-yl)methoxy)-5,6-dihydro-4H-[1,4]oxazepino[5,6,7-de]quinazolin-9-yl)-7-fluorobenzo[b]thiophene-3-carbonitrile]	≤ 2000	≤ 2000	≤ 2000	≤ 2000
